Series [1] deals with II-IIIA degree burns. As to the kind of experiment: Burn model in rats, hexapeptide as topical 0.02-0.5% solution (Example 3). In kind it is in vivo, outbred male rats. Conditions: for Day on which burn wound hyperaemia score reached 0: after thermal injury; for Day on which burn wound hyperaemia score reached 0 / Burn wound oedema score: topical; for Burn wound oedema score: score 0-3. The protocol: The efficacy of topical administration of tyrosyl-D-alanyl-glycyl-phenylalanyl-leucyl-arginine in the therapy of thermal burns was evaluated on models of II-IIIA degree burns in 30 outbred male rats. The animals were kept in a vivarium (ambient temperature 19-23° C.) according to Good Laboratory Practices of the Eurasian Economic Union and the applicable guidelines (Reference).
Flat-bottom glass containers of an appropriate diameter filled with liquid paraffin to ⅔ of their volume were used as the thermal agent. The containers were heated on a water bath before application to the skin of the rats, which were randomized to three groups (n=10 in each group): the control group and two experimental groups. Another tissue repair stimulator, dexpanthenol (5% topical ointment), was used as the comparator. All the rats received burns with a standardized area of ≈40 cm^2. Within 20 min. after inflicting the thermal injury, control group animals were treated by applying an aseptic dressing followed by therapy with Iodopiron and Levomecol (group I); animals in the experimental groups additionally received dexpanthenol (group II) or 0.02-0.5% solution of hexapeptide tyrosyl-D-alanyl-glycyl-phenylalanyl-leucyl-arginine (group III consisting of 5 animals that received 0.02% solution and 5 animals that received 0.5% solution).
The experiment involved evaluating the general condition of the animals and performing gross examination to evaluate the severity of tissue oedema in the burn region, hyperaemia, infiltration, appearance of wound discharge and wound epithelialization. These signs were scored as follows: maximum severity of a sign corresponded to a score of 3 points, and absence of a sign to a score of 0. Objective assessment of the healing process was based on planimetric measurements. All the observations were performed on days 1, 3, 5, 7 and 10 of the experiment.
The healing rate was determined using the formula V=(S1−S2)/t, where S1=wound area during the previous measurement, S2=wound area during the next measurement, t=number of days between the previous and the next measurement.
The experiment also included an evaluation of the white blood cell population as a ratio of the total number of lymphocytes to segmented cells in venous blood.

In another series the test system is 3rd degree burn. As to conditions: 0.3 mg subcutaneously; cited from earlier work.
A further series deals with neutrophils. As to conditions: cited from earlier work.
Another series relates to burn injury. As to conditions: intraperitoneal; during 14 days after burn injury; Dalargin 0.5 mg/kg; control 60%; cited from earlier work.
For another series, the system named is linear wounds. As to the kind of experiment: Linear (planar) skin wound model in rats (Example 4). It is filed as in vivo, white male Wistar rats. The protocol: The study was performed in white male Wistar rats. All the animals were randomized to three groups of 13 rats each: (I) control Group (untreated), (II) comparator Group (Bepanthen topical cream with 5% dexpanthenol) and (III) experimental Group (hexapeptide tyrosyl-D-alanyl-glycyl-phenylalanyl-leucyl-arginine). The Group III consisted of 5 animals that received 0.02% solution and 5 animals that received 0.5% solution.
Linear wounds were modeled by an approximately 4-cm-long longitudinal incision in the skin and subcutaneous fat along the midline of the back. After making the incision, the edges of the wound were brought together, and three sutures were applied at an equal distance. The animals received the study drugs starting on the day of the operation; the control Group received a placebo. In each group, 3 rats were intended for a tensometric study, which required euthanasia on day 7 of the experiment. Samples for a histological evaluation were collected immediately after complete healing (on days 25-26).
The study drugs were applied once daily, every day, for 20 days. The wound healing effect was evaluated based on the clinical course (presence of purulent discharge, dynamics of wound edge attachment) on days 4, 7, 15 and 20 of the experiment.

Series [2] has as its system II-IIIA degree burns. As to the kind of experiment: Burn model in rats, hexapeptide as 0.02% and 0.5% gel (Example 5). It is filed as in vivo, outbred male rats. As to conditions: for Average healing rate of burn wounds, difference to control Group I: FIG. 4; for Burn area (planimetry), dynamics of burn wound healing: vs control and Bepanthen. As for the experimental part:
The efficacy of topical administration of hexapeptide tyrosyl-D-alanyl-glycyl-phenylalanyl-leucyl-arginine in the therapy of thermal burns was evaluated on models of II-IIIA degree burns in 40 outbred male rats. The animals were kept in a vivarium according to Good Laboratory Practices of the Eurasian Economic Union and the applicable guidelines (Reference). Flat-bottom glass containers of an appropriate diameter filled with liquid paraffin to ⅔ of their volume were used as a thermal agent. The animals were randomized to four groups (n=10 in each group): Group I was the control group. A popular tissue repair product, Bepanthen (topical cream with 5% dexpanthenol), was used as the comparator. Burn area was standardized at Æ40 cm^2.
An aseptic dressing applied within the first 20 minutes after the burn, followed by therapy with Iodopiron and Levomecol, was used for control Group I. Group II was treated with Bepanthen. Group III received hexapeptide tyrosyl-D-alanyl-glycyl-phenylalanyl-leucyl-arginine as 0.02% topical gel, while Group IV received hexapeptide tyrosyl-D-alanyl-glycyl-phenylalanyl-leucyl-arginine as 0.5% topical gel.
In addition to monitoring the general condition of the animals on days 1, 3, 5, 7 and 10 of the experiment, the healing process was evaluated planimetrically. The healing rate was determined using the formula V=(S1-S2)/t, where S1=wound area during the previous measurement, S2=wound area during the next measurement, t=number of days between the previous and the next measurement.

Peptide text beside a SMILES is read from it.

Take `CC(C)(CO)[C@@H](O)C(=O)NCCCO` [Dexpanthenol, dexpanthenol]: in the series on II-IIIA degree burns [1], the “Day on which burn wound hyperaemia score reached 0” value turned out to be 7 days. Also, the “Burn wound oedema score” value was 2.0±0.5 points with II-IIIA degree burns [1] (day 1 after thermal injury), 0.7±0.5 points with II-IIIA degree burns [1] (day 5 after thermal injury) and 0.3±0.3 points in the series with II-IIIA degree burns [1] (day 7 after thermal injury).

With `CC(C)C[C@H](NC(=O)[C@H](Cc1ccccc1)NC(=O)CNC(=O)[C@@H](C)NC(=O)[C@@H](N)Cc1ccc(O)cc1)C(=O)N[C@@H](CCCNC(=N)N)C(=O)O` [tyrosyl-D-alanyl-glycyl-phenylalanyl-leucyl-arginine] (HELM PEPTIDE1{Y.[dA].G.F.L.R}$$$$V2.0), the “Skin repair and productive inflammation” value in the series with 3rd degree burn was “significant acceleration of skin repair and reduced intensity of productive inflammation”. In addition, the “Effect on activated neutrophils and NADPHase activity” value in the series with neutrophils (blood of healthy humans (n=27)) was “increasing the total number of activated neutrophils and NADPHase activity”. Besides, the “Effect on functional and metabolic activity of neutrophils” value in the series on neutrophils (peripheral blood samples of burn patients (n=15)) is “normalized elevated functional and metabolic activity of neutrophils”. In addition, the Mortality rate in the series on burn injury is on record as 75%. In the series with II-IIIA degree burns [1], the “Day on which burn wound hyperaemia score reached 0” value was 5 days. Besides, the “Burn wound oedema score” value was found to be 1.0±0.4 points in the series with II-IIIA degree burns [1] (day 1 after thermal injury), 0.3±0.2 points in the series with II-IIIA degree burns [1] (day 5 after thermal injury) and 0.0±0.0 points in the series on II-IIIA degree burns [1] (day 7 after thermal injury). Further, the “Reduction of hyperaemia compared with Dexpanthenol” value in the series with II-IIIA degree burns [1] (topical 0.02-0.5% solution) is “statistically significantly more effective”. The “Average healing rate of burn wounds, difference to control Group I” value in the series on II-IIIA degree burns [1] (topical 0.02-0.5% solution, FIG. 1) was “Statistically significant differences”; with II-IIIA degree burns [2] (0.02% topical gel (Group III)), “Statistically significant differences”; in the series with II-IIIA degree burns [2] (0.5% topical gel (Group IV)), “Statistically significant differences”. Further, the “Burn area (planimetry), dynamics of burn wound healing” value in the series on II-IIIA degree burns [1] (topical 0.02-0.5% solution, vs control and Dexpanthenol) is “significant reduction of burn area already on day 3”; in the series with II-IIIA degree burns [2] (0.02% topical gel (Group III)), “pronounced statistically significant positive dynamics of burn wound healing”; with II-IIIA degree burns [2] (0.5% topical gel (Group IV)), “pronounced statistically significant positive dynamics of burn wound healing”. Also, the “Day on which lymphocyte-neutrophil ratio returned to normal” value with II-IIIA degree burns [1] (venous blood, topical 0.02-0.5% solution, FIG. 2) was 7 days. Moreover, the “Tensiometric evaluation, superiority relative to control Group I” value in the series with linear wounds (day 7 of the experiment) is on record as “over than twofold”. Further, in the series on linear wounds (once daily for 20 days, relative to control and comparator, FIG. 3), the “Healing of the linear wound (visual inspection)” value is “more rapid healing of the linear wound”. The “Histological evaluation of the scar” value with linear wounds (samples collected after complete healing (days 25-26)) is listed as “fibrous components were dominant in scar tissue relative to cellular components”. Besides, the “Reduction of burn area, 0.5% gel (Group IV) relative to 0.02% gel (Group III)” value in the series on II-IIIA degree burns [2] (not statistically significant) is listed as “numerically greater reduction of burn area”.

In the case of delta sleep-inducing peptide [DSIP], the Mortality rate in the series on burn injury is 20%.

The values are drawn from patent US20210161993A1, “Method for accelerated healing of burn wounds” (PVP LABS PTE. LTD., priority 2018, published 2021).
